Values joined by “and” are separate entries in the source; they are usually repeats but may differ in a detail not shown here. Equal entries are not always repeated. Where two headings read alike, the source gives them in different places.
Key:
Phytophthora infestans = format: in vivo; conditions: 500 ppm of active ingredient; tomato, preventive; evaluated 7 days after inoculation; 100% = no disease
[1] = Measurement of logP values by HPLC on reversed phase columns (EEC directive 79/831 Annex V.A8); format: physicochemical; conditions: for Log P / Log P [I2] minor isomer / Log P [I1] main isomer / Log P (two values printed, isomers not assigned): HPLC; for Log P: pH 2.7, 0.1% formic acid in water / acetonitrile, single value; for Log P (two values printed, isomers not assigned): two values without isomer tag
Plasmopara viticola = assay: Plasmopara test (grapevines) / preventive; format: in vivo; conditions: 100 ppm of active ingredient, evaluated 6 days after inoculation, 100% = no disease
Experimental: Plasmopara Test (Grapevines)/Preventive
Solvent: 24.5 parts by weight of acetone
24.5 parts by weight of dimethylacetamide
Emulsifier: 1 part by weight of alkylaryl polyglycol ether
To produce a suitable preparation of active compound, 1 part by weight of active compound is mixed with the stated amounts of solvent and emulsifier, and the concentrate is diluted with water to the desired concentration.
To test for preventive activity, young plants are sprayed with the preparation of active compound at the stated rate of application. After the spray coating has dried on, the plants are inoculated with an aqueous spore suspension of Plasmopara viticola and then remain for 1 day in an incubation cabinet at approximately 20° C. and a relative atmospheric humidity of 100%. The plant is subsequently placed for 4 days in a greenhouse at approximately 21° C. and a relative atmospheric humidity of approximately 90%. The plants are then misted and placed for 1 day in an incubation cabinet.
The test is evaluated 6 days after the inoculation. 0% means an efficacy which corresponds to that of the untreated control, while an efficacy of 100% means that no disease is observed.

[2] = pH 2.7, 0.1% formic acid, minor isomer
[3] = pH 2.7, 0.1% formic acid, main isomer

Structure (SMILES) | efficacy (Phytophthora infestans) [%] | efficacy (Plasmopara viticola) [%] | Log P [1] | further results
Cc1snnc1C(=NOCc1csc(NC(=O)COC2CCCCC2)n1)c1ccccc1 [Example 59, 2-(cyclohexyloxy)-N-{4-[({[(5-methyl-1,2,3-thiadiazol-4-yl)(phenyl)methylene]amino}oxy)methyl]-1,3-thiazol-2-yl}acetamide] | 97 | 75 | – | chromatographic logP ([1]; pH 2.7, HPLC, pH 2.7, 0.1% formic acid, main isomer, read-out: Log P [I1] main isomer): 4.41; chromatographic logP ([1]; pH 2.7, HPLC, pH 2.7, 0.1% formic acid, minor isomer, read-out: Log P [I2] minor isomer): 4.32; chromatographic logP ([1]; reversed phase HPLC columns, pH 2.7, mixture of Z and E diastereoisomers, preparation example 1, read-out: logP(HCOOH)): 4.41
Cc1snnc1C(=NOCc1cccc(NC(=O)C(F)(F)Oc2ccccc2)n1)c1ccccc1 [Example 2] | 100 | 74 | 4.54 | –
Cc1snnc1C(=NOCc1cccc(NC(=O)CSc2ccccc2)n1)c1ccccc1 (mixture of isomers) [Example 6] | 98 | 86 | – | Log P [I2] minor isomer [1, 2]: 4.09
Cc1snnc1C(=NOCc1csc(NC(=O)COC(C)C)n1)c1ccccc1 [Example 65] | 95 | 84 | 3.59 | –
Cc1snnc1C(=NOCc1csc(NC(=O)COCc2ccccc2)n1)c1ccccc1 [Example 27] | 100 | 89 | 3.92 | –
Cc1snnc1C(=NOCc1csc(NC(=O)COCc2ccccc2)n1)c1ccccc1 (mixture of isomers) [Example 28] | 100 | 93 | – | Log P [I1] main isomer [1, 3]: 3.96; Log P [I2] minor isomer [1, 2]: 3.85
Cc1snnc1C(=NOCc1csc(NC(=O)C(C)Oc2ccccc2)n1)c1ccccc1 (stereo not drawn) [Example 15] | 100 | 93 | 4.04 | –
Cc1snnc1C(=NOCc1csc(NC(=O)C(C)OCC(C)C)n1)c1ccccc1 (stereo not drawn) [Example 85] | 95 | 73 | – | –
Cc1snnc1C(=NOCc1csc(NC(=O)COc2ccccc2)n1)c1ccccc1 (mixture of isomers) [Example 7] | 100 | 88 | – | Log P (two values printed, isomers not assigned) ([1]; pH 2.7, 0.1% formic acid): 3.71 and 3.83
COc1ccccc1OCC(=O)Nc1nc(CON=C(c2ccccc2)c2nnsc2C)cs1 (mixture of isomers) [Example 57] | 100 | 72 | – | Log P [I1] main isomer [1, 3]: 3.89; Log P [I2] minor isomer [1, 2]: 3.78
Cc1snnc1C(=NOCc1csc(NC(=O)COc2ccccc2)n1)c1ccccc1 [Example 8] | 100 | 72 | 3.8 | –
Cc1snnc1C(=NOCc1csc(NC(=O)COCC2CCC2)n1)c1ccccc1 [Example 53] | 97 | 95 | 4.11 | –
Cc1snnc1C(=NOCc1csc(NC(=O)C(C)OCC2CCCCC2)n1)c1ccccc1 (stereo not drawn) [Example 73] | 100 | – | 5.35 | –
Cc1snnc1C(=NOCc1csc(NC(=O)C(C)Oc2ccc(F)cc2)n1)c1ccccc1 (stereo not drawn) [Example 95] | 100 | – | 4.06 | –
Cc1snnc1C(=NOCc1csc(NC(=O)COc2cccc(Cl)c2)n1)c1ccccc1 (mixture of isomers) [Example 41] | 100 | – | – | Log P (two values printed, isomers not assigned) ([1]; pH 2.7, 0.1% formic acid): 4.24 and 4.11
Cc1snnc1C(=NOCc1cccc(NC(=O)C(C)OC2CCCCC2)n1)c1ccccc1 (stereo not drawn) [Example 56] | 98 | – | 5.22 | –
CCCCOCC(=O)Nc1nc(CON=C(c2ccccc2)c2nnsc2C)cs1 [Example 21] | 93 | – | 3.99 | –
Cc1snnc1C(=NOCc1cccc(NC(=O)COCCC2CCCCC2)n1)c1ccccc1 [Example 84] | 75 | – | 5.81 | –
Cc1snnc1C(=NOCc1csc(NC(=O)C(F)(F)Oc2ccccc2)n1)c1ccccc1 (mixture of isomers) [Example 1] | 100 | – | – | Log P [I1] main isomer [1, 3]: 4.25; Log P [I2] minor isomer [1, 2]: 4.15
Cc1snnc1C(=NOCc1cccc(NC(=O)C(C)OCC2CCCC2)n1)c1ccccc1 (stereo not drawn) [Example 76] | 97 | – | 5.39 | –
Cc1snnc1C(=NOCc1csc(NC(=O)C(C)OC2CCCCC2)n1)c1ccccc1 (stereo not drawn) [Example 55] | 98 | – | 4.76 | –

Structure (SMILES) | efficacy (Phytophthora infestans) [%] | efficacy (Plasmopara viticola) [%] | Log P [1] | further results
Cc1snnc1C(=NOCc1csc(NC(=O)COC2CCCC2)n1)c1ccccc1 [Example 23] | 95 | 91 | 4.09 | –
Cc1snnc1C(=NOCc1csc(NC(=O)COCC2CC2)n1)c1ccccc1 [Example 17] | 97 | – | 3.53 | –
C=CCOC(C)C(=O)Nc1nc(CON=C(c2ccccc2)c2nnsc2C)cs1 (stereo not drawn) [Example 25] | 98 | 77 | 3.61 | –
Cc1snnc1C(=NOCc1csc(NC(=O)C(C)OCC2CC2)n1)c1ccccc1 (stereo not drawn) [Example 39] | 97 | 91 | 3.83 | –
C=CCCOCC(=O)Nc1cccc(CON=C(c2ccccc2)c2nnsc2C)n1 [Example 38] | 100 | – | 3.99 | –
Cc1snnc1C(=NOCc1cccc(NC(=O)COC2CCCCC2)n1)c1ccccc1 [Example 60] | 95 | – | 4.91 | –
Cc1snnc1C(=NOCc1csc(NC(=O)COCCC2CCCC2)n1)c1ccccc1 [Example 77] | 95 | – | 4.91 | –
Cc1snnc1C(=NOCc1csc(NC(=O)COCC(C)C)n1)c1ccccc1 [Example 63] | 100 | 75 | 4.01 | –
Cc1snnc1C(=NOCc1csc(NC(=O)COCCC(C)C)n1)c1ccccc1 [Example 3] | 95 | 84 | 4.36 | –
Cc1snnc1C(=NOCc1cccc(NC(=O)CSC2CCCC2)n1)c1ccccc1 [Example 107] | 92 | – | 4.51 | –
Cc1snnc1C(=NOCc1cccc(NC(=O)COCC2CC2)n1)c1ccccc1 [Example 18] | 100 | – | 3.92 | –
Cc1snnc1C(=NOCc1cccc(NC(=O)COCC2CCCC2)n1)c1ccccc1 [Example 109] | 89 | – | 5.01 | –
C#CCOC(CC)C(=O)Nc1nc(CON=C(c2ccccc2)c2nnsc2C)cs1 (stereo not drawn) [Example 104] | 98 | – | 3.61 | –
Cc1snnc1C(=NOCc1csc(NC(=O)C(C)(C)Oc2ccccc2)n1)c1ccccc1 [Example 102] | 100 | – | 4.53 | –
C#CCOCC(=O)Nc1cccc(CON=C(c2ccccc2)c2nnsc2C)n1 [Example 48] | 100 | – | 3.29 | –
Cc1snnc1C(=NOCc1cccc(NC(=O)C(C)OCC2CCCCC2)n1)c1ccccc1 (stereo not drawn) [Example 74] | 94 | – | 5.87 | –
CCOC(C)(C)C(=O)Nc1cccc(CON=C(c2ccccc2)c2nnsc2C)n1 [Example 62] | 95 | – | 4.34 | –
C=CCOC(C)C(=O)Nc1cccc(CON=C(c2ccccc2)c2nnsc2C)n1 (stereo not drawn) [Example 26] | 95 | – | 3.94 | –
Cc1snnc1C(=NOCc1cccc(NC(=O)C(C)Oc2ccccc2)n1)c1ccccc1 (stereo not drawn) [Example 16] | 100 | – | 4.41 | –
CCOC(C)(C)C(=O)Nc1nc(CON=C(c2ccccc2)c2nnsc2C)cs1 [Example 61] | 100 | – | 3.94 | –
Cc1snnc1C(=NOCc1csc(NC(=O)COc2cccc(Cl)c2)n1)c1ccccc1 [Example 42] | 100 | – | 4.19 | –

Reference: patent publication US20130116287A1 (priority 2010, published 2013)
